Results reported in PMC9687805 (Biomolecules, 2022).

Legend:
[1] = set-up: method as in PMID 33831780; conditions: cited from earlier work
Human erythrocyte AChE [2] = molecular target: T1, Human erythrocyte AChE (Homo sapiens, UniProt P22303); assay: Kinetic study of AChE inhibition (Lineweaver-Burk); format: biochemical
T1 construct: purchased Sigma-Aldrich; host or cells: human erythrocytes
Protocol: (§1) Mechanisms of human erythrocyte AChE and equine serum BChE inhibition were assessed via a thorough analysis of enzyme kinetics. Residual activity was measured following 5 min incubation at 25 °C with three increasing concentrations of inhibitor and six decreasing substrate concentrations.

porcine liver CES [3] = assay: CES inhibition, 4-nitrophenyl acetate hydrolysis; conditions: compound 20 μM; mean ± SEM, n = 3; n.a. = not active
Protocol: Final enzyme and substrate (4-nitrophenyl acetate) concentrations were 0.02 unit/mL and 1 mM, respectively. Assays were carried out with a blank containing all constituents except porcine CES to assess non-enzymatic hydrolysis. Measurements were performed with a FLUOStar Optima microplate reader (BMG Labtech, Ortenberg, Germany). Compounds were dissolved in DMSO; the incubation mixture contained 2% (v/v) solvent. The primary evaluation of the inhibitory activity of the compounds was performed by determining the degree of the enzyme inhibition at a compound concentration of 20 µM. For this, a sample of the corresponding enzyme was incubated with the test compound for 5 min; then the enzyme residual activity was determined. Each experiment was performed in triplicate. […] Substrate was then added and residual enzyme activity relative to an inhibitor-free control was measured using a FLUOStar Optima microplate reader.

EeAChE PAS = molecular target: T2, EeAChE PAS (Electrophorus electricus, UniProt O42275); assay: biochemical; format: binding; conditions: 0.25 h; compound 20 μM, EeAChE 7 μM, propidium iodide 8 μM; n.a. = not active; read-out: % Displacement of Propidium from the EeAChE PAS at 20 μM
T2 construct: purchased Sigma-Aldrich type VI-S; host or cells: electric eel
Protocol: Electrophorus electricus (EeAChE) (electric eel, type VI-S, lyophilized powder, Sigma-Aldrich, St. Louis, MO, USA) was used owing to its high degree of purification, high activity, and lower cost than human AChE (hAChE). […] To determine the degree of displacement (% displacement) of propidium from the PAS of AChE, EeAChE (final concentration, 7 μM) was incubated with the test compound at a concentration of 20 μM in 1 mM Tris-HCl buffer pH 8.0, 25 °C, for 15 min. Then, propidium iodide solution (final concentration, 8 μM) was added, the samples were incubated for 15 min, and the fluorescence spectrum (530 nm (excitation) and 600 nm (emission)) was taken. […] The blank contained propidium iodide of the same concentration in 1 mM Tris-HCl buffer, pH 8.0 at 25 °C. The measurements were carried out in triplicate on a FLUOStar Optima microplate reader (LabTech, Ortenberg, Germany), and the results were calculated by the following formula:% Displacement = 100 − (IFAChE + Propidium + inhibitor / IFAChE + Propidium) × 100 (1) where IFAChE + Propidium is the fluorescence intensity of the propidium associated with AChE in the absence of the test compound (taken as 100%), and IFAChE + Propidium + inhibitor is the fluorescence intensity of the propidium associated with AChE in the presence of the test compound.

[4] = Ferric reducing antioxidant power (FRAP) assay; conditions: Trolox equivalents; n=3, 1 h, 37 °C; mean ± SEM
Protocol: The FRAP (Ferric Reducing Antioxidant Power) assay measures the ability of antioxidants to reduce the ferric 2,4,6-tripyridyl-s-triazine complex [Fe(TPTZ)2]^3+ to the intensely blue-colored ferrous complex [Fe(TPTZ)2]^2+ with an absorption maximum at λ = 593 nm. The reducing ability of a compound is an indicator of its potential antioxidant activity.
The ferric reducing ability of the compounds was determined by a previously described method as a microplate-adapted version described in [42]. 2,4,6-tris(pyridin-2-yl)-1,3,5-triazine (TPTZ), FeCl3·6H2O, Trolox, ascorbic acid and DMSO were obtained from Sigma-Aldrich Chemical Co (St. Louis, MO, USA). The FRAP reagent was prepared by mixing acetate buffer (0.3 M, pH 3.6), TPTZ (10 mM in 40 mM HCl) and FeCl3·6H2O (20 mM in distilled water) in a ratio of 10:1:1 immediately before use. Compounds were dissolved in DMSO and tested in the concentration range of 1×10^−6–1×10^−4 M. The solvent content in the reaction mixture was 4% (v/v). The test compounds (10 µL) were added to the FRAP reagent solution (240 µL) and mixed thoroughly. The reaction was carried out at 37 °C in the dark, the incubation time was 1 h. The absorbance at 600 nm was monitored spectrophotometrically by a FLUOStar OPTIMA microplate reader (BMG Labtech, Germany) at 37 °C. Trolox was used as a standard antioxidant, ascorbic acid as a reference compound. Values were obtained from four replicates of each sample and three independent experiments.
The ferric reducing ability of compounds was expressed as TE units (antioxidant activity in Trolox equivalent) with the values calculated as the ratio of the concentrations of Trolox and the test compound resulting in the same effect.

[5] = ABTS radical cation scavenging activity assay; set-up: key to ABTS•+-scavenging activity, TEAC: ratio of slopes, tested compound vs Trolox (Trolox = 1); conditions: n=3, 1 h, 30 °C
Protocol: Radical scavenging activity of the compounds was evaluated by the ABTS radical cation (ABTS^•+) scavenging assay showing the ability of the compounds to decolorize the ABTS^•+ solution [86] with some modifications. Trolox was used as the antioxidant standard; ascorbic acid was used as the comparison compound. All tested compounds and standards were dissolved in DMSO.
The solution of ABTS^•+ was produced by mixing 7 mM ABTS aqueous solution with 2.45 mM potassium persulfate aqueous solution in equal quantities and allowing them to react for 12–16 h at room temperature in the dark. Radical scavenging capacity of the compounds was analyzed by mixing 10 µL of compound with 240 µL of ABTS^•+ working solution in ethanol (100 µM final concentration), and after 1 h of incubation at 30 °C the decrease in absorbance was measured spectrophotometrically at 734 nm using a Bio-Rad xMark microplate UV/VIS spectrophotometer (Bio-Rad, Hercules, CA, USA). The compounds were tested in the concentration range 5 × 10^−7–1 × 10^−4 M. Ethanol blanks were run in each assay. Values were obtained from five replicates of each sample and three independent experiments.
Antioxidant activity was reported as Trolox equivalent antioxidant capacity (TEAC values), consisting of the ratio between the slopes obtained from the linear correlation for concentrations of the tested compounds and Trolox with absorbance of ABTS radical. […] The calculations were carried out using Origin 6.1 for Windows (OriginLab, Northampton, MA, USA). Results are presented as mean ± SEM calculated using GraphPad Prism version 6.05 for Windows, GraphPad Software (San Diego, CA, USA).

equine serum BChE [6] = molecular target: T3, equine serum BChE (Equus caballus, UniProt P81908); assay: biochemical; conditions: equine serum BChE; 5 min incubation, 25 °C, pH 7.5; mean ± SEM, n = 3; read-out: Inhibitory activity against BChE, IC50
T3 construct: purchased Sigma-Aldrich; host or cells: equine serum
Protocol: (§2) The assay solution consisted of 0.1 M K/Na phosphate buffer pH 7.5, 25 °C, 0.33 mM DTNB, 0.02 unit/mL AChE or BChE, and 1 mM substrate (ATCh or BTCh, respectively). Reagent blanks consisted of reaction mixtures without substrates.
(§3) Each experiment was performed in triplicate.

Human erythrocyte AChE [7] = molecular target: T1, Human erythrocyte AChE; assay: biochemical; conditions: human erythrocyte AChE; 5 min incubation, 25 °C, pH 7.5; mean ± SEM, n = 3; read-out: Inhibitory activity against AChE, IC50
Protocol: as §2, §3

equine serum BChE [8] = molecular target: T3, equine serum BChE; assay: Kinetic study of BChE inhibition (Lineweaver-Burk); format: biochemical
Protocol: as §1

porcine liver CES [9] = test system: porcine liver CES; set-up: method as in PMID 33831780; conditions: cited from earlier work
[10] = Lineweaver-Burk plot, changes in Km and Vmax

T3 sequence (P81908 whole entry): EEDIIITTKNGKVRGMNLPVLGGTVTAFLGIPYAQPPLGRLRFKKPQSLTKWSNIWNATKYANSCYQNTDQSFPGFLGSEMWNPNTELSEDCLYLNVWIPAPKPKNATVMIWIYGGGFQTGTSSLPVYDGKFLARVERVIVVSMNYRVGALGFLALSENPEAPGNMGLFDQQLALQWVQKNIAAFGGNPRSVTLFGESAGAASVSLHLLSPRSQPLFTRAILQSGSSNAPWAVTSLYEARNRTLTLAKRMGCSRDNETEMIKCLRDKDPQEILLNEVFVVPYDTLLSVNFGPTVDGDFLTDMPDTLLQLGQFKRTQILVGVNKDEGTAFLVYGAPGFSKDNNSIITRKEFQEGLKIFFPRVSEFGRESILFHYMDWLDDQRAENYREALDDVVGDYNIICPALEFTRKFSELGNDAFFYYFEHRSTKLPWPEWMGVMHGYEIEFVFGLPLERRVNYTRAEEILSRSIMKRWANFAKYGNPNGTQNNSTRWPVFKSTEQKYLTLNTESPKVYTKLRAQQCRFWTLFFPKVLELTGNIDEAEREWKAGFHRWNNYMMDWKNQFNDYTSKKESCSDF
T1 sequence (P22303 32-617 isoform P22303-2 limits assumed): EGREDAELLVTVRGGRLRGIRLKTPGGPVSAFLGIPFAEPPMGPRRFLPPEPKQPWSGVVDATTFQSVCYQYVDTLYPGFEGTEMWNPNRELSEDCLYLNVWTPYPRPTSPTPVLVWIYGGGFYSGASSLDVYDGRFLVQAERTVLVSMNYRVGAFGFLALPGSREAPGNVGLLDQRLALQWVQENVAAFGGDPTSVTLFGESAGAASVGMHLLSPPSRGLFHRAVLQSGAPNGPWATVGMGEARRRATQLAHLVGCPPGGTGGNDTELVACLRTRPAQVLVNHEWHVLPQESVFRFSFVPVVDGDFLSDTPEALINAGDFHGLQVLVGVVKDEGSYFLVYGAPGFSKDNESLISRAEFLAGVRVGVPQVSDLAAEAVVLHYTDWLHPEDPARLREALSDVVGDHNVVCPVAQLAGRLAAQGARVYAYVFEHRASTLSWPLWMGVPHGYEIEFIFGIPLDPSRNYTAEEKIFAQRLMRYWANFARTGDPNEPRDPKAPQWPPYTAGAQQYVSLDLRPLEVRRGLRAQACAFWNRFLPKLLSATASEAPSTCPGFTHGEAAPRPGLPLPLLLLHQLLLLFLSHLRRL
T2 sequence (O42275 24-633): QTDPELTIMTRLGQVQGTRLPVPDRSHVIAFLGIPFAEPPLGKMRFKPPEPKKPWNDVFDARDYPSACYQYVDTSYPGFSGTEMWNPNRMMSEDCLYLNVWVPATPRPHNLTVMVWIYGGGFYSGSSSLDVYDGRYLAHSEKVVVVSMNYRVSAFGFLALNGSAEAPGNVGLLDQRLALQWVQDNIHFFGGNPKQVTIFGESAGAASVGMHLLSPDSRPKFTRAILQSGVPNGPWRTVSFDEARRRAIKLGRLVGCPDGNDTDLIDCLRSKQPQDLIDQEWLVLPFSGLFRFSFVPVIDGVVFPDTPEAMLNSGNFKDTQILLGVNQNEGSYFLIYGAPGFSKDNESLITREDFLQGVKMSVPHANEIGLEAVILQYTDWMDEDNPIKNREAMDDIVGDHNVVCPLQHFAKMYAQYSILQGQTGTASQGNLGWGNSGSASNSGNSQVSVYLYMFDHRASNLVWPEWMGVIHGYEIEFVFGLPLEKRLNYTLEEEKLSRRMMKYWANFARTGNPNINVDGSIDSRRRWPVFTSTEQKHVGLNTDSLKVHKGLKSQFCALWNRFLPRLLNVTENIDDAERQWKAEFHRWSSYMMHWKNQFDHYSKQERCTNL

In the case of `Cc1ccc(NN=C(C(=O)c2ccccc2)C(=O)C(F)(F)F)cc1` [1d, 4,4,4-trifluoro-2-[2-(4-methylphenyl)hydrazinylidene]-1-phenylbutane-1,3-dione], the “radical-scavenging activity in the ABTS assay” value [1] is given as “high radical-scavenging activity”.
In the case of `CC(=O)C(/N=N/c1ccc(C)cc1)=C(\C)NCCCCCCNc1c2c(nc3ccccc13)CCCC2` [6b], the “Type of AChE inhibition” value (Human erythrocyte AChE [2]; [10]) is reported as “mixed type of inhibition”, the “αKi (noncompetitive component), AChE” value (Human erythrocyte AChE [2]; mixed type inhibition) is reported as 0.473 ± 0.041 µM and the Ki (Human erythrocyte AChE [2]; mixed type inhibition, read-out: Ki (competitive component), AChE) is reported as 0.254 ± 0.018 µM. The “Inhibitory activity against CES, % inhibition at 20 μM” value (porcine liver CES [3]) was 29.0 ± 0.1%, the inhibition at 20 µM (EeAChE PAS) was 19 ± 1.3% and the “FRAP (Fe3+-reducing activity), TE” value [4] was 0.48 ± 0.04. For the same molecule, the “ABTS•+-scavenging activity, TEAC” value ([5]; Trolox equivalent antioxidant capacity, mean ± SEM) was 1.00 ± 0.02, the IC50 ([5]; concentration for 50% reduction of ABTS radical cation) was 18.6 ± 1.4 µM and the IC50 (equine serum BChE [6]) was 0.138 ± 0.002 µM. For the same molecule, the IC50 (Human erythrocyte AChE [7]) was 0.342 ± 0.015 µM, the “Type of BChE inhibition” value (equine serum BChE [8]; [10]) was “mixed type of inhibition” and the “αKi (noncompetitive component), BChE” value (equine serum BChE [8]; mixed type inhibition) was 0.224 ± 0.022 µM. The Ki (equine serum BChE [8]; mixed type inhibition, read-out: Ki (competitive component), BChE) was 0.095 ± 0.008 µM.
For `CC(=O)C(=NNc1ccc(C)cc1)C(=O)C(F)(F)F` [1c, 1,1,1-trifluoro-3-[2-(4-methylphenyl)hydrazinylidene]pentane-2,4-dione], the “radical-scavenging activity in the ABTS assay” value [1] is listed as “high radical-scavenging activity” and the “inhibitory activity against CES” value (porcine liver CES [9]) is listed as “moderate inhibitory activity”.
